We go through 11 molecules from ChEMBL document CHEMBL1145574, “Carbonic anhydrase inhibitors: Inhibition of the new membrane-associated isoform XV with phenols” (Bioorg Med Chem Lett, 2008).

One assay deals with T1, Carbonic anhydrase 15 (Mus musculus, UniProt Q99N23).
T1 sequence (Q99N23 whole entry): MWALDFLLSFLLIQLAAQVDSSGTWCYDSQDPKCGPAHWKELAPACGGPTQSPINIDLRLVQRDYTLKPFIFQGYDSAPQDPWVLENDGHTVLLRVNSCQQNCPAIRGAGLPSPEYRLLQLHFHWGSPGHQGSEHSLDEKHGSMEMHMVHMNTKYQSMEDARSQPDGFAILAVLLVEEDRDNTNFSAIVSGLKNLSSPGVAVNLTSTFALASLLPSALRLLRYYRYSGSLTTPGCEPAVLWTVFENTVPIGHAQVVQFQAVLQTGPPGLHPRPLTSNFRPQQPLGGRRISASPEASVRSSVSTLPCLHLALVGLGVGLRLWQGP

The target in another assay is Carbonic anhydrase 1 (Homo sapiens, UniProt P00915).
The target of the next assay is Carbonic anhydrase 2 (Homo sapiens, UniProt P00918).

Carbonic anhydrase 1, sequence (P00915 whole entry): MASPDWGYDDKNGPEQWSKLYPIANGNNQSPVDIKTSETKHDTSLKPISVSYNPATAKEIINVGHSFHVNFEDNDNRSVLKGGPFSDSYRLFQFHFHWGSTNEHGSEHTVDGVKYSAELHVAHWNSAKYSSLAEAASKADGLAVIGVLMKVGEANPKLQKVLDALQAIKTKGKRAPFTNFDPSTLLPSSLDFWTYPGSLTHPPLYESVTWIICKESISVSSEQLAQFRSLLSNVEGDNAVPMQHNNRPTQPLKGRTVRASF
Description for Carbonic anhydrase 15: Inhibition of mouse recombinant carbonic anhydrase 15 by stopped-flow CO2 hydrase assay
Description for Carbonic anhydrase 2: Inhibition of human carbonic anhydrase 2 by stopped-flow CO2 hydrase assay

In the case of `Oc1cc(F)cc(F)c1`, the Ki at Carbonic anhydrase 15 was 11.3 µM.

For the molecule `Oc1cc(F)ccc1F`, the inhibition constant Ki is 134 µM on Carbonic anhydrase 1, 870 µM at Carbonic anhydrase 2 and 212 µM on Carbonic anhydrase 15. On Carbonic anhydrase 15, `Nc1ccc(O)cc1` [4-AMINOPHENOL] showed an inhibition constant (Ki) of 335 µM.

`N#Cc1ccc(O)cc1` [4-CYANOPHENOL]: the values for the inhibitory constant (Ki) on Carbonic anhydrase 1 and on Carbonic anhydrase 15 were 131 µM and 434 µM, respectively.

In the case of `CC(=O)Nc1ccc(O)cc1` [ACETAMINOPHEN], the inhibition constant (Ki) at Carbonic anhydrase 1 stood at 10 µM; on Carbonic anhydrase 2 it was 6.2 µM; at Carbonic anhydrase 15, 9.23 µM.

For `Oc1ccccc1O` [CATECHOL], the values for the inhibition constant (Ki) at Carbonic anhydrase 1, on Carbonic anhydrase 2 and at Carbonic anhydrase 15 were 4000 µM, 9.91 µM and 10.2 µM, respectively. Turning to `Oc1c(I)cc(Cl)c2cccnc12` [CLIOQUINOL], the Ki on Carbonic anhydrase 15 was determined as 2.33 µM. As for `Oc1ccc(O)cc1` [HYDROQUINONE], the Ki on Carbonic anhydrase 1 came out at 10.7 µM; on Carbonic anhydrase 15 it was 10.6 µM. As to `O=C(O)c1ccc(O)cc1` [PARABEN], the results for the inhibitory constant (Ki) on Carbonic anhydrase 1 and at Carbonic anhydrase 15 were 9.8 µM and 9.32 µM, respectively.

Regarding `Oc1ccccc1` [PHENOL], the affinity on Carbonic anhydrase 15 corresponds to a Ki of 10.5 µM. As for `Oc1cccc(O)c1` [RESORCINOL], the Ki came to 795 µM at Carbonic anhydrase 1 and 385 µM on Carbonic anhydrase 15.
